In patent publication US10723741B1, “DNA polymerase IIIC inhibitors and use thereof” (Acurx Pharmaceuticals, LLC, priority 2018, dated 2020):
In brackets after ≈: the same amount, converted by molar mass. Where a name gives a salt, the structure may show the parent alone. Read-outs that look alike come from different tables or passages of the source.

What was measured:
Type in all cases: cell-based
[1] = test system: Bacillus subtilis ATCC 6633; experiment: Broth microdilution MIC, B. subtilis ATCC 6633; conditions: read-out: MIC B. subtilis ATCC 6633
Procedure, shortened: (§1)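 Two-fold dilutions from 64 to 0.0625 μg/ml final, 1% DMSO, were inoculated at ~5.0×10^5 cfu/ml in the strain's test medium and kept 20 h at 37 °C in ambient atmosphere. Colonies were grown on MHA, with S. pneumoniae on blood agar under 5% CO2.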

[2] = test system: Enterococcus faecalis ATCC 29212; experiment: Broth microdilution MIC, E. faecalis ATCC 29212; conditions: read-out: MIC E. faecalis ATCC 29212
Procedure, shortened: as §1

[3] = test system: Enterococcus faecium ATCC 700221 (VRE); experiment: Broth microdilution MIC, E. faecium ATCC 700221 (VRE); design: MIC E. faecium ATCC 700221 (VRE): unit: ug/mL; conditions: for MIC: Enterococcus faecium, read-out: MIC E. faecium ATCC 700221 (VRE)
Procedure, shortened: as §1

[4] = test system: Staphylococcus aureus ATCC 29213 (MSSA); experiment: Broth microdilution MIC, S. aureus ATCC 29213 (MSSA); conditions: read-out: MIC S. aureus ATCC 29213 (MSSA)
Procedure, shortened: as §1

[5] = test system: Escherichia coli ATCC 25922; experiment: Broth microdilution MIC, E. coli ATCC 25922 (MHIIB w & w/o 4 mM EDTA); conditions: for MIC: Escherichia coli, read-out: MIC E. coli ATCC 25922; for MIC E. coli ATCC 25922 + 4 mM EDTA: with 4 mM EDTA
Procedure, shortened: as §1

[6] = test system: Streptococcus pneumoniae ATCC 49619; experiment: Broth microdilution MIC, S. pneumoniae ATCC 49619; conditions: read-out: MIC S. pneumoniae ATCC 49619
Procedure, shortened: as §1

[7] = test system: Staphylococcus aureus NRS384 (MRSA); experiment: Broth microdilution MIC, S. aureus NRS384 (MRSA); design: MIC NRS 384 (MRSA): unit not given here; conditions: for MIC: Staphylococcus aureus, read-out: MIC NRS 384 (MRSA)
Procedure, shortened: as §1

[8] = ATCC6633, broth microdilution, 37° C., 20 hours
[9] = ATCC29212, broth microdilution, 37° C., 20 hours
[10] = broth microdilution, 37° C., 20 hours
[11] = ATCC25922, without EDTA, broth microdilution, 37° C., 20 hours
[12] = ATCC49619, broth microdilution, 37° C., 20 hours

Compound	MIC [1, 8]	MIC [2, 9]	MIC [3, 10]	MIC [4, 10]	MIC [5, 11]	MIC E. coli ATCC 25922 + 4 mM EDTA [5, 10]	MIC [6, 12]	MIC [7, 10]	MIC E. faecium ATCC 700221 (VRE) [3, 10]	MIC NRS 384 (MRSA) [7, 10]	MIC ([1]; ATCC6633, 20 h)	MIC ([2]; ATCC29212, 20 h)	MIC ([3]; 20 h)	MIC ([4]; 20 h)	MIC ([5]; ATCC25922, 20 h)	MIC ([6]; ATCC49619, 20 h)	MIC ([7]; 20 h)	MIC ([7]; S. aureus NRS 384, broth microdilution, 37° C., 20 hours)
O=c1[nH]c(NCc2ccc(Cl)c(Cl)c2)nc2cnn(CCOCCO)c12 [Compound 88, 5-((3,4-dichlorobenzyl)amino)-1-(2-(2-hydroxyethoxy)ethyl)-1H-pyrazolo[4,3-d]pyrimidin-7(6H)-one]	2 µg/mL (≈ 5.02 µM)	4 µg/mL (≈ 10 µM)	2 µg/mL (≈ 5.02 µM)	4 µg/mL (≈ 10 µM)	> 64 µg/mL	>64 µg/mL	2 µg/mL (≈ 5.02 µM)	4 µg/mL (≈ 10 µM)										
Cl.O=c1[nH]c(NCc2ccc(Cl)c(Cl)c2)nc2cnn(Cc3cccnc3)c12 [Compound 113, 5-[(3,4-Dichlorophenyl)methylamino]-1-(3-pyridylmethyl)-6H-pyrazolo[4,3-d]pyrimidin-7-one]	1 µg/mL	8 µg/mL		4 µg/mL	> 64 µg/mL	>64 µg/mL	8 µg/mL		2/2	4/4								
Cn1ncc2nc(NCc3cscn3)[nH]c(=O)c21 [Compound 15, 1-Methyl-5-((thiazol-4-ylmethyl)amino)-1H-pyrazolo[4,3-d]pyrimidin-7(6H)-one]	> 64 µg/mL	> 64 µg/mL	> 64 µg/mL	> 64 µg/mL	> 64 µg/mL	>64 µg/mL	> 64 µg/mL	> 64 µg/mL										
COC(=O)COCCn1ncc2nc(NCc3ccc(Cl)c(Cl)c3)[nH]c(=O)c21 [Compound 287, methyl 2-(2-(5-((3,4-dichlorobenzyl)amino)-7-oxo-6,7-dihydro-1H-pyrazolo[4,3-d]pyrimidin-1-yl)ethoxy)acetate]	2 µg/mL (≈ 4.69 µM)	8 µg/mL (≈ 18.8 µM)		4 µg/mL (≈ 9.38 µM)	> 64 µg/mL	>64 µg/mL	16 µg/mL (≈ 37.5 µM)		4/4	4/4								
Cl.O=c1[nH]c(NCc2ccc(Cl)c(Cl)c2)nc2cn(Cn3cncn3)nc12 [Compound 103, 2-((1H-1,2,4-triazol-1-yl)methyl)-5-((3,4-dichlorobenzyl)amino)-2H-pyrazolo[4,3-d]pyrimidin-7(6H)-one hydrochloride]	32 µg/mL	> 64 µg/mL	64 µg/mL	64 µg/mL	> 64 µg/mL	64 µg/mL	16 µg/mL	64 µg/mL										
Cn1ncc2nc(NCc3c(Cl)cccc3Cl)[nH]c(=O)c21 [Compound 30, 5-((2,6-Dichlorobenzyl)amino)-1-methyl-1H-pyrazolo[4,3-d]pyrimidin-7(6H)-one]	> 64 µg/mL	> 64 µg/mL	> 64 µg/mL	> 64 µg/mL	> 64 µg/mL	>64 µg/mL	> 64 µg/mL	> 64 µg/mL										
O=c1[nH]c(NCc2ccc(Cl)c(Cl)c2)nc2cnn(CCOC/C=N/O)c12 [Compound 191, (E)-2-(2-(5-((3,4-dichlorobenzyl)amino)-7-oxo-6,7-dihydro-1H-pyrazolo[4,3-d]pyrimidin-1-yl)ethoxy)acetaldehyde oxime]	2 µg/mL (≈ 4.86 µM)	8 µg/mL (≈ 19.5 µM)	2 µg/mL (≈ 4.86 µM)	4 µg/mL (≈ 9.73 µM)	> 64 µg/mL	>64 µg/mL	4 µg/mL (≈ 9.73 µM)	8 µg/mL (≈ 19.5 µM)										
CN1CCC(n2ncc3nc(NCc4ccc(Cl)c(Cl)c4)[nH]c(=O)c32)C1 (stereo not shown) [Compound 243, 5-((3,4-Dichlorobenzyl)amino)-1-(1-methylpyrrolidin-3-yl)-1H-pyrazolo[4,3-d]pyrimidin-7(6H)-one TFA salt]						32 µg/mL					4 µg/mL	8 µg/mL	4 µg/mL	8 µg/mL	> 64 µg/mL	4 µg/mL	8 µg/mL	
CP(C)(=O)CCCCn1ncc2nc(NCc3ccc(Cl)c(Cl)c3)[nH]c(=O)c21 [Compound 146, 5-((3,4-Dichlorobenzyl)amino)-1-(4-(dimethylphosphoryl)butyl)-1H-pyrazolo[4,3-d]pyrimidin-7(6H)-one]	32 µg/mL (≈ 72.4 µM)	64 µg/mL (≈ 145 µM)	32 µg/mL (≈ 72.4 µM)	> 64 µg/mL	> 64 µg/mL	>64 µg/mL	32 µg/mL (≈ 72.4 µM)	> 64 µg/mL										
CC(C)(C)OC(=O)N1CCCC(CN2CCC(n3ncc4nc(NCc5ccc(Cl)c(Cl)c5)[nH]c(=O)c43)CC2)C1.Cl (stereo not shown) [Compound 250]	4 µg/mL	> 64 µg/mL	4 µg/mL	> 64 µg/mL	> 64 µg/mL	>64 µg/mL	8 µg/mL	> 64 µg/mL										
O=c1[nH]c(NCc2ccc(Cl)c(Cl)c2)nc2cnn(Cc3ccc(O)c(O)c3)c12 [Compound 189, 5-((3,4-dichlorobenzyl)amino)-1-(3,4-dihydroxybenzyl)-1H-pyrazolo[4,3-d]pyrimidin-7(6H)-one]	16 µg/mL (≈ 37 µM)	16 µg/mL (≈ 37 µM)	8 µg/mL (≈ 18.5 µM)	16 µg/mL (≈ 37 µM)	> 64 µg/mL	64 µg/mL	64 µg/mL (≈ 148 µM)	16 µg/mL (≈ 37 µM)										
O=C(c1cccnc1)N1CCC(n2nc(Cl)c3nc(NCc4ccc(Cl)c(Cl)c4)[nH]c(=O)c32)CC1 [Compound 318, 3-Chloro-5-[(3,4-dichlorophenyl)methylamino]-1-[1-(pyridine-3-carbonyl)-4-piperidyl]-6H-pyrazolo[4,3-d]pyrimidin-7-one]	1 µg/mL (≈ 1.88 µM)	2 µg/mL (≈ 3.75 µM)	1 µg/mL (≈ 1.88 µM)	2 µg/mL (≈ 3.75 µM)	> 64 µg/mL	>64 µg/mL	4 µg/mL (≈ 7.51 µM)											2 µg/mL (≈ 3.75 µM)
Cl.O=C(c1cccnc1)N1CCC(n2ncc3nc(NCc4ccc(Cl)c(Cl)c4)[nH]c(=O)c32)C1 (stereo not shown) [Compound 258, 5-((3,4-Dichlorobenzyl)amino)-1-(1-nicotinoylpyrrolidin-3-yl)-1H-pyrazolo[4,3-d]pyrimidin-7(6H)-one]	2 µg/mL	8 µg/mL	4 µg/mL	8 µg/mL	> 64 µg/mL	>64 µg/mL	4 µg/mL	8 µg/mL										
O=c1[nH]c(NCc2ccc(Cl)c(Cl)c2)nc2cnn(C[C@@H]3CO[C@@H](CO)CO3)c12 [Compound 207, 5-((3,4-dichlorobenzyl)amino)-1-(((2R,5S)-5-(hydroxymethyl)-1,4-dioxan-2-yl)methyl)-1H-pyrazolo[4,3-d]pyrimidin-7(6H)-one]	2 µg/mL (≈ 4.54 µM)	8 µg/mL (≈ 18.2 µM)	4 µg/mL (≈ 9.08 µM)	16 µg/mL (≈ 36.3 µM)	> 64 µg/mL	>64 µg/mL	8 µg/mL (≈ 18.2 µM)	16 µg/mL (≈ 36.3 µM)										
